Structures can show the parent of a compound that is named as a salt.
Legend:
[1] = conversion test to the parent drug (alprenolol) in buffer solution having the pH of 7.4; format: physicochemical; conditions: hydrochloride, Britton-Robinson buffer pH 7.4, 37° C.; for half-life: read-out: Half-life time (T 1/2) (converted); for 50% producing time of the parent drug (T' 1/2): unit assumed
Description: Assuming the absorption and distribution of the derivatives in vivo, conversion tests to the parent drug (alprenolol) were carried out by the following method in buffer solutions having the pH of 2, 4 and 7.4.
Britton-Robinson buffer solutions having the pH of 2, 4 and 7.4 were prepared. To each 800 μl of the buffer solution, 200 μl of an aqueous solution of each compound which had been adjusted to a concentration of 2 mg/ml were added. The resulting mixture was incubated at 37° C.
From each reaction mixture, 100 μl of sample were collected after 0, 1, 3, 5, 7 and 24 hours, diluted with a developer and subjected to high performance liquid chromatography (abbreviated as HPLC) under following conditions.
(d) Conditions of HPLC in the conversion test;
(d) Conditions of HPLC in the above conversion test;
As to the compounds (hydrochloride) described in the above (1)-(4), the conversion rate to the parent drug was examined in a buffer solution having the pH of 7.4 assuming blood pH. Table 1 illustrates half-life time (T 1/2) of each compound in the above buffer solution and 50% producing time (T' 1/2) of the parent drug in the same buffer solution.

[2] = oral administration to dogs, plasma levels of the parent drug and AUC (improving effect on bioavailability); format: in vivo, Female beagle dogs; conditions: beagle dogs; for relationship between dose and AUC (area under the plasma concentration curve) (FIG. 14): alprenolol hydrochloride 2-30 mg/kg, hydrochlorides of (1) and (2) equivalent to 10 and 20 mg/kg; for plasma concentration of the parent drug (FIG. 13): hydrochlorides, dose equivalent to 20 mg/kg of alprenolol hydrochloride, 0.5-6 hours, versus alprenolol hydrochloride
Description: In the next step, the alprenolol drivative of this invention was orally administered to dogs as experimental animals. The results described below were obtained by investigating the improving effect on bioavailability. Female beagle dogs (a body weight of about 10 kg) were used as the experimental animals. The 12 dogs were divided into 2 groups of 6 dogs and each group was alternately subjected to the experiment with intervals of 2 weeks. To the dogs, 2, 5, 10, 20 and 30 mg/kg of alprenolol hydrochloride 13.50 and 27.00 mg/kg of the compound (1) hydrochloride, (equivalent to 10, 20 mg/kg of the alprenolol hydrochloride, respectively) and 13.99 and 27.98 mg/kg of the compound (2) hydrochloride (equivalent to 10 and 20 mg/kg of alprenolol hydrochloride, respectively) were orally administered. Blood was collected respectively after 0.5, 1, 2, 4 and 6 hours. The plasma separated from the blood was extracted with ethanol. Plasma levels of the parent drug were determined by HPLC. The conditions for the HPLC analysis are shown as follows: |Column ODS 4.6.phi. × 250 mm |Flow rate 0.8 ml/min |Eluent CH3 CN:CH3 OH:50 mM KH2 PO4

[3] = cited from earlier work

SMILES: C=CCc1ccccc1OCC(CNC(C)C)OC(=O)CCC(=O)O (centres unmarked) [(1), Butanedioic acid mono[1-{(2-allylphenoxy)methyl}{2-(1-methylethyl)amino}ethyl]ester]
- half-life [1]: 7.4 h
- 50% producing time of the parent drug (T' 1/2) [1]: 5 h
- relationship between dose and AUC (area under the plasma concentration curve) (FIG. 14) [2]: linear relationships
- plasma concentration of the parent drug (FIG. 13) [2]: significantly high plasma concentration of the parent drug

SMILES: C=CCc1ccccc1OCC(CNC(C)C)OC(=O)CCCC(=O)O (centres unmarked) [(2), pentanedioic acid mono[1-{(2-allylphenoxy)methyl}-{2-(1-methylethyl)amino}ethyl]ester hydrochloride]
- half-life [1]: 4.9 h
- 50% producing time of the parent drug (T' 1/2) [1]: 5 h
- relationship between dose and AUC (area under the plasma concentration curve) (FIG. 14) [2]: linear relationships
- plasma concentration of the parent drug (FIG. 13) [2]: significantly high plasma concentration of the parent drug

SMILES: C=CCc1ccccc1OCC(CNC(C)C)OC(=O)CCCC(=O)OCC (centres unmarked) [(3), 4-Ethoxycarbonylbutanoic acid mono[1-{(2-allylphenoxy)methyl}-{2-(1-methylethyl)amino}ethyl]ester]
- half-life [1]: 1.3 h
- 50% producing time of the parent drug (T' 1/2) [1]: 2 h

SMILES: C=CCc1ccccc1OCC(CNC(C)C)OC(=O)/C=C\C(=O)O (centres unmarked) [(4), (z)-Butenedioic acid mono[1-{(2-allylphenoxy)methyl}-{2-(1-methylethyl)amino}ethyl]ester]
- half-life [1]: 0.9 h
- 50% producing time of the parent drug (T' 1/2) [1]: 3 h

SMILES: C=CCc1ccccc1OCC(O)CNC(C)C (centres unmarked) [alprenolol hydrochloride, reference compound]
- relationship between dose and AUC (area under the plasma concentration curve) (FIG. 14) [2]: non-linear relationship with the threshold due to the first-pass effect

SMILES: C=CCc1ccccc1OCC(O)CNC(C)C (centres unmarked) [alprenolol]
- bioavailability of alprenolol in the oral administration [3]: 15%

Source: US4927959A, “Alprenolol derivatives” (Snow Brand Milk Products Co., Ltd., priority 1987, dated 1990)
